We go through one compound from ChEMBL document CHEMBL1143075, “Taxanes from Shells and Leaves of Corylus avellana” (2008).

Molecules are shown by their SMILES.

The assay relates to SK-MES-1. Kind of assay: Inhibition of metaphase to anaphase transition in human SKMes1 cells at 10 nM. It counts as functional.

Consider `CC(=O)O[C@H]1C(=O)[C@@]2(C)[C@H]([C@H](OC(=O)c3ccccc3)[C@]3(O)C[C@H](OC(=O)[C@H](O)[C@@H](NC(=O)c4ccccc4)c4ccccc4)C(C)=C1C3(C)C)[C@]1(OC(C)=O)CO[C@@H]1C[C@@H]2O` [PACLITAXEL], for which the Ratio worked out at 0.026.
